From ChEMBL document CHEMBL1131737, “An efficient stereoselective synthesis of [3S(1S,9S)]-3-[[[9-(benzoylamino) octahydro-6,10-dioxo-6H-pyridazino-(1,2-a)(1,2)-diazepin-1-yl]-carbonyl ]amino]-4-oxobutanoic acid, an interleukin converting enzyme (ICE) inhibitor” (Bioorg Med Chem Lett, 1999)
Activity calls are given as the source filed them. The calls are words filed in the database; no cut-off is given here.

Target: T1, Caspase-1 (Homo sapiens) (UniProt P29466)
T1 sequence (whole entry): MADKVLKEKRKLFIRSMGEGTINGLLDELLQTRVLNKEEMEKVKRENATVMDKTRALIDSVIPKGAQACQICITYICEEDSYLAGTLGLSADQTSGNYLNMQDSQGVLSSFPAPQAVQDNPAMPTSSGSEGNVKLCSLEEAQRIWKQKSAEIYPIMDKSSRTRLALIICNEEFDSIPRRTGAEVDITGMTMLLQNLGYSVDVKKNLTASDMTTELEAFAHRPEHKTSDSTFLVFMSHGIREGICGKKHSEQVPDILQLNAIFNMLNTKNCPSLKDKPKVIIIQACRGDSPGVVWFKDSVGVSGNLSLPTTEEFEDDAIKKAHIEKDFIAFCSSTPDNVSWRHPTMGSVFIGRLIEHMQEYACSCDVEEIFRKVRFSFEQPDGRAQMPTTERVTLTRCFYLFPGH
Experiment: Inhibitory activity against IL-1 beta converting enzyme; Active

With O=C[C@H](CC(=O)O)NC(=O)[C@@H]1CCCN2C(=O)CC[C@H](NC(=O)c3ccccc3)C(=O)N12 the Activity was “Active”.
